Experimental data as given in patent US12508300B2, “Acylated GLP-1 derivative” (Sciwind Biosciences Co., Ltd., priority 2019, dated 2025).
Read-outs that look alike come from different tables or passages of the source. *1 amine or outer side, *2 acyl side, *3 side chain or, on linkers, in order; H or OH if unused. Where a SMILES comes first, the peptide text is derived from it. Where no end group is shown, it is not given here. Side-chain parts run from the residue outwards. The star is where a group is joined. C18 diacid = O=C(O)CCCCCCCCCCCCCCCCC(=O)*; γGlu = O=C(O)[C@H](CCC(=O)[*:2])N[*:1]; AEEA = NCCOCCOCC(=O)O

How the values were obtained:
Format in all cases: in vivo
CD-1 mice = system: CD-1 mice
Method: Twenty-eight healthy female CD-1 mice aged 4-6 weeks are selected and divided into 4 groups, and they are injected subcutaneously with M4, M5, M7 and M0 at a dose of 0.15 mg/kg body weight.

db/db mice = assay: Glucose-lowing effect of different doses in type II diabetic db/db mice (fasting, random blood glucose, OGTT G-AUC); settings: for Average changes of the blood glucose area under the curve after administration: OGTT
Method: The administration time is set as 0 h, and the fasting blood glucose and OGTT (oral glucose tolerance assay) are determined after fasting for 7-8 h every day, then 10% glucose is intragastrically administered at 1 g/kg body weight, and then blood is collected from the tip of the tail to measure the blood glucose in real time at 0, 0.5, 1, and 2 h after glucose load. After administration, the blood glucose is measured every day before fasting as random blood glucose, until the fasting blood glucose value of each animal of the test group recovers to the value before administration. All of the basal blood glucose value, random blood glucose value, and the blood glucose area under the curve (G-AUC) value determined before administration are bases for evaluating the efficacy of the medicament, and they are set as 0.
Change of the blood glucose (Δ: delta)=Blood glucose value after administration-Basal blood glucose value before administration.
Change of the blood glucose area under the curve (Δ: delta)=blood glucose area under the curve after administration-blood glucose area under the curve before administration.

ICR mice = system: ICR mice; set-up: G-AUC: unit not given here
Method: 20% glucose is intragastrically administered every day according to the time schedule of 4 h, 1 d, 2 d, 3 d, 4 d, and 5 d, at a dose of 2 g/kg body weight, and fasting for 6 hours before administering the glucose; and blood is respectively collected from the tip of the tail at 0 h, 0.5 h, 1 h and 2 h after giving the 20% glucose, then measuring the blood glucose value in real time by using Roche blood glucose test paper.

CC[C@H](C)[C@H](NC(=O)[C@H](Cc1ccccc1)NC(=O)[C@H](CCC(=O)O)NC(=O)[C@H](CCCNC(=N)N)NC(=O)[C@H](C)NC(=O)[C@H](C)NC(=O)[C@H](CCCCNC(=O)COCCOCCNC(=O)COCCOCCNC(=O)CC[C@H](NC(=O)CCCCCCCCCCCCCCCCC(=O)O)C(=O)O)NC(=O)[C@H](CCC(=O)O)NC(=O)[C@H](CCC(=O)O)NC(=O)[C@H](CC(C)C)NC(=O)[C@H](Cc1ccc(O)cc1)NC(=O)[C@H](CO)NC(=O)[C@H](CO)NC(=O)[C@@H](NC(=O)[C@H](CC(=O)O)NC(=O)[C@H](CO)NC(=O)[C@@H](NC(=O)[C@H](Cc1ccccc1)NC(=O)[C@@H](NC(=O)CNC(=O)[C@H](CCC(=O)O)NC(=O)[C@@H](NC(=O)[C@@H](N)Cc1c[nH]cn1)C(C)C)[C@@H](C)O)[C@@H](C)O)C(C)C)C(=O)N[C@@H](C)C(=O)N[C@@H](Cc1c[nH]c2ccccc12)C(=O)N[C@@H](CC(C)C)C(=O)N[C@H](C(=O)N[C@@H](CCCNC(=N)N)C(=O)NCC(=O)N[C@@H](CCCNC(=N)N)C(=O)NCC(=O)O)C(C)C [M2, N-ε^23-[2-(2-[2-(2-[2-(2-[4-(17-carboxyheptadecanoylamino)-4(s)-carboxybutyrylamino]ethoxy)ethoxy]acetylamino)ethoxy]ethoxy)acetyl](Val^8Glu^22Lys^23Arg^26,34-GLP-1 (7-37)) peptide] (H-HVEGTFTSDVSSYLEEK([AEEA-AEEA-γGlu-C18 diacid])AAREFIAWLVRGRG-OH; N-terminus and C-terminus assumed)
Inhibition rate (blood glucose) (CD-1 mice; mouse, in vivo, sc, 0.15 mg/kg, 6 h): 34.29%
Inhibition rate (blood glucose) (CD-1 mice; mouse, in vivo, sc, 0.15 mg/kg, 30 h): 29.51%
Inhibition rate (blood glucose) (CD-1 mice; mouse, in vivo, sc, 0.15 mg/kg, 54 h): 27.23%
Inhibition rate (blood glucose) (CD-1 mice; mouse, in vivo, sc, 0.15 mg/kg, 78 h): 21.97%
Inhibition rate (blood glucose) (CD-1 mice; mouse, in vivo, sc, 0.15 mg/kg, 102 h): 10.15%

N-ε^26-[2-(2-[2-(2-[2-(2[4-(17-carboxyheptadecanoylamino)-4(s)-carboxybutyrylamino]ethoxy)ethoxy]acetylamino)ethoxy]ethoxy)acetyl]Val^8Glu^22Lys^26Arg^34-GLP-1(7-37) peptide (HVEGTFTSDVSSYLEEQAAK([AEEA-AEEA-γGlu-C18 diacid])EFIAWLVRGRG) [M0, Lys at position 26, disclosed in CN107033234A]
time after administration at which G-AUC returns to the base before administration (db/db mice; 0.015 mg/kg dosage group): 27 h
time after administration at which fasting blood glucose returns to the basal blood glucose base (db/db mice; 0.015 mg/kg dosage group): 51 h
time after administration at which random blood glucose returns to the base before administration (db/db mice; 0.015 mg/kg dosage group): 67 h
Average changes of fasting blood glucose after administration (db/db mice; 0.015 mg/kg s.c., 3 h): -3.5 mM
Average changes of random blood glucose after administration (db/db mice; 0.015 mg/kg s.c., 6 h): -15.7 mM
Average changes of random blood glucose after administration (db/db mice; 0.015 mg/kg s.c., 19 h): -13.5 mM
Average changes of fasting blood glucose after administration (db/db mice; 0.015 mg/kg s.c., 27 h): -2.7 mM
Average changes of random blood glucose after administration (db/db mice; 0.015 mg/kg s.c., 43 h): -10.1 mM
Average changes of fasting blood glucose after administration (db/db mice; 0.015 mg/kg s.c., 51 h): -2.4 mM
Average changes of random blood glucose after administration (db/db mice; 0.015 mg/kg s.c., 67 h): -3.1 mM
Average changes of fasting blood glucose after administration (db/db mice; 0.015 mg/kg s.c., 75 h): 2.5 mM
Average changes of random blood glucose after administration (db/db mice; 0.015 mg/kg s.c., 91 h): -0.1 mM
Average changes of fasting blood glucose after administration (db/db mice; 0.015 mg/kg s.c., 99 h): 3.9 mM
Average changes of random blood glucose after administration (db/db mice; 0.015 mg/kg s.c., 115 h): 4.9 mM
Average changes of fasting blood glucose after administration (db/db mice; 0.015 mg/kg s.c., 123 h): 3.7 mM
Average changes of random blood glucose after administration (db/db mice; 0.015 mg/kg s.c., 139 h): 5.9 mM
Average changes of fasting blood glucose after administration (db/db mice; 0.015 mg/kg s.c., 147 h): 9.8 mM
time after administration at which G-AUC returns to the base before administration (db/db mice; 0.15 mg/kg dosage group): 51 h
time after administration at which fasting blood glucose returns to the basal blood glucose base (db/db mice; 0.15 mg/kg dosage group): 75 h
time after administration at which random blood glucose returns to the base before administration (db/db mice; 0.15 mg/kg dosage group): 67 h
Average changes of fasting blood glucose after administration (db/db mice; 0.15 mg/kg s.c., 3 h): -4.1 mM
Average changes of random blood glucose after administration (db/db mice; 0.15 mg/kg s.c., 6 h): -15.7 mM
Average changes of random blood glucose after administration (db/db mice; 0.15 mg/kg s.c., 19 h): -14.8 mM
Average changes of fasting blood glucose after administration (db/db mice; 0.15 mg/kg s.c., 27 h): -3.0 mM
Average changes of random blood glucose after administration (db/db mice; 0.15 mg/kg s.c., 43 h): -14.1 mM
Average changes of fasting blood glucose after administration (db/db mice; 0.15 mg/kg s.c., 51 h): -3.2 mM
Average changes of random blood glucose after administration (db/db mice; 0.15 mg/kg s.c., 67 h): -7.1 mM
Average changes of fasting blood glucose after administration (db/db mice; 0.15 mg/kg s.c., 75 h): -0.7 mM
Average changes of random blood glucose after administration (db/db mice; 0.15 mg/kg s.c., 91 h): 1.7 mM
Average changes of fasting blood glucose after administration (db/db mice; 0.15 mg/kg s.c., 99 h): 1.4 mM
Average changes of random blood glucose after administration (db/db mice; 0.15 mg/kg s.c., 115 h): 4.5 mM
Average changes of fasting blood glucose after administration (db/db mice; 0.15 mg/kg s.c., 123 h): 4.4 mM
Average changes of random blood glucose after administration (db/db mice; 0.15 mg/kg s.c., 139 h): 7.8 mM
Average changes of fasting blood glucose after administration (db/db mice; 0.15 mg/kg s.c., 147 h): 6.7 mM
Average changes of the blood glucose area under the curve after administration (db/db mice; 0.015 mg/kg s.c., 3 h): -9.0 mmol/L/h
Average changes of the blood glucose area under the curve after administration (db/db mice; 0.015 mg/kg s.c., 27 h): -5.2 mmol/L/h
Average changes of the blood glucose area under the curve after administration (db/db mice; 0.015 mg/kg s.c., 51 h): 1.1 mmol/L/h
Average changes of the blood glucose area under the curve after administration (db/db mice; 0.015 mg/kg s.c., 75 h): 8.2 mmol/L/h
Average changes of the blood glucose area under the curve after administration (db/db mice; 0.015 mg/kg s.c., 99 h): 7.9 mmol/L/h
Average changes of the blood glucose area under the curve after administration (db/db mice; 0.015 mg/kg s.c., 123 h): 13.0 mmol/L/h
Average changes of the blood glucose area under the curve after administration (db/db mice; 0.015 mg/kg s.c., 147 h): 21.9 mmol/L/h
Average changes of the blood glucose area under the curve after administration (db/db mice; 0.15 mg/kg s.c., 3 h): -10.3 mmol/L/h
Average changes of the blood glucose area under the curve after administration (db/db mice; 0.15 mg/kg s.c., 27 h): -10.2 mmol/L/h
Average changes of the blood glucose area under the curve after administration (db/db mice; 0.15 mg/kg s.c., 51 h): -7.1 mmol/L/h
Average changes of the blood glucose area under the curve after administration (db/db mice; 0.15 mg/kg s.c., 75 h): 1.5 mmol/L/h
Average changes of the blood glucose area under the curve after administration (db/db mice; 0.15 mg/kg s.c., 99 h): 3.9 mmol/L/h
Average changes of the blood glucose area under the curve after administration (db/db mice; 0.15 mg/kg s.c., 123 h): 9.9 mmol/L/h
Average changes of the blood glucose area under the curve after administration (db/db mice; 0.15 mg/kg s.c., 147 h): 16.0 mmol/L/h
G-AUC (ICR mice; 0 h (before administration)): 18.0 ± 1.9
time the glucose-lowing effect is maintained (ICR mice; 0.15 mg/kg s.c. single): 3 days
G-AUC (ICR mice; 0.15 mg/kg s.c. single, 4 h): 11.1 ± 1.2
Inhibition rate (blood glucose) (ICR mice; 0.15 mg/kg s.c. single, 4 h): 38.47%
G-AUC (ICR mice; 0.15 mg/kg s.c. single, 1 d): 11.9 ± 0.7
Inhibition rate (blood glucose) (ICR mice; 0.15 mg/kg s.c. single, 1 d): 33.79%
G-AUC (ICR mice; 0.15 mg/kg s.c. single, 2 d): 13.5 ± 1.1
Inhibition rate (blood glucose) (ICR mice; 0.15 mg/kg s.c. single, 2 d): 25.18%
G-AUC (ICR mice; 0.15 mg/kg s.c. single, 3 d): 15.6 ± 1.3
Inhibition rate (blood glucose) (ICR mice; 0.15 mg/kg s.c. single, 3 d): 13.43%
G-AUC (ICR mice; 0.15 mg/kg s.c. single, 4 d): 18.2 ± 1.1
Inhibition rate (blood glucose) (ICR mice; 0.15 mg/kg s.c. single, 4 d): 0.60%
duration of glucose-lowing effect in normal mice (CD-1 mice; 0.15 mg/kg s.c., from Table 4): about 3 days
Inhibition rate (blood glucose) (CD-1 mice; Table 4, CD-1 mice, 0.15 mg/kg s.c., 6 h): 38.47%
Inhibition rate (blood glucose) (CD-1 mice; Table 4, CD-1 mice, 0.15 mg/kg s.c., 30 h): 33.79%
Inhibition rate (blood glucose) (CD-1 mice; Table 4, CD-1 mice, 0.15 mg/kg s.c., 54 h): 25.18%
Inhibition rate (blood glucose) (CD-1 mice; Table 4, CD-1 mice, 0.15 mg/kg s.c., 78 h): 13.43%
Inhibition rate (blood glucose) (CD-1 mice; Table 4, CD-1 mice, 0.15 mg/kg s.c., 102 h): −1.05%
Inhibition rate (blood glucose) (CD-1 mice; Table 5 (second experiment), CD-1 mice, 0.15 mg/kg s.c., 6 h): 26.71%
Inhibition rate (blood glucose) (CD-1 mice; Table 5 (second experiment), CD-1 mice, 0.15 mg/kg s.c., 30 h): 33.57%
Inhibition rate (blood glucose) (CD-1 mice; Table 5 (second experiment), CD-1 mice, 0.15 mg/kg s.c., 54 h): 17.32%
Inhibition rate (blood glucose) (CD-1 mice; Table 5 (second experiment), CD-1 mice, 0.15 mg/kg s.c., 78 h): 8.97%
Inhibition rate (blood glucose) (CD-1 mice; Table 5 (second experiment), CD-1 mice, 0.15 mg/kg s.c., 102 h): −12.89%
